We go through 18 compounds from US10189839B2, “Tricyclic imidazole compounds as inhibitors of tryptophan hydroxylase” (ACTELION PHARMACEUTICALS LTD, priority 2013, dated 2019).

This experiment deals with T1, full length human TPH1 (Homo sapiens, UniProt P17752).
T1 construct: To generate the enzyme, full length human TPH1 is cloned into the plasmid pET20b(+); made in house; host or cells: E. coli
T1 sequence (P17752 1-444): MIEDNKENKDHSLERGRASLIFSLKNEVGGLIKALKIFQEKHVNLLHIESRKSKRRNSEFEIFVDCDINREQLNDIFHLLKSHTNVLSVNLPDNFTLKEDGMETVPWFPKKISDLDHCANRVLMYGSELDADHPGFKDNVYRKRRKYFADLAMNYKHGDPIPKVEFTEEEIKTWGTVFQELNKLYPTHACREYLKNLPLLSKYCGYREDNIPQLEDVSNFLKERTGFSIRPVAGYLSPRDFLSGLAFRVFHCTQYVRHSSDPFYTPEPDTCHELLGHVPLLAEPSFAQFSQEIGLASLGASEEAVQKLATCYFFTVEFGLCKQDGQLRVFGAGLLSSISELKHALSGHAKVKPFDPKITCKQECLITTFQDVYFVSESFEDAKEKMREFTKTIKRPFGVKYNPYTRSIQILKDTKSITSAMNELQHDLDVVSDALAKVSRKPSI
In words: Biochemical in vitro assay using fluorescence readout (TPH1 enzyme activity). As to conditions: Table 1, mean where determined several times. Summed up: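 IC50 (mean of repeats) derived from 5-hydroxy-L-tryptophan fluorescence at 540 nm (300 nm excitation) relative to vehicle, after perchloric acid stop. Reaction: 60 min, 15° C., pH 7.6 Tris-HCl, 40 μM L-tryptophan, 100 μM 6-methyltetrahydropterine, DTT, catalase, with 40-80 nM purified full-length human TPH1 from E. coli.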
As usually defined, the IC50 is the concentration needed to halve the response being measured. `Cc1nc(C(C)C)sc1C1c2c(nc3n2CCCC3)CCN1C(=O)COc1ccc(NS(C)(=O)=O)nc1Cl` (stereo not drawn) [Example 1.12.1, N-(6-chloro-5-(2-(1-(2-isopropyl-4-methylthiazol-5-yl)-3,4,6,7,8,9-hexahydroimidazo[1,2-a:5,4-c′]dipyridin-2(1H)-yl)-2-oxoethoxy)pyridin-2-yl)methanesulfonamide] yielded an IC50 of 819 nM.

The compound `CCc1nc(NS(C)(=O)=O)ccc1OCC(=O)N1CCc2nc3n(c2C1c1scnc1C)CCCC3` (stereo not drawn) [Example 1.13.1, N-(6-ethyl-5-(2-(1-(4-methylthiazol-5-yl)-3,4,6,7,8,9-hexahydroimidazo[1,2-a:5,4-c′]dipyridin-2(1H)-yl)-2-oxoethoxy)pyridin-2-yl)methanesulfonamide207] came in with an IC50 of 44 nM. Next, `CCc1nc(N2CCCS2(=O)=O)ccc1OCC(=O)N1CCc2nc3n(c2C1c1scnc1C)CCCC3` (stereo not drawn) [Example 1.13.2, 2-((6-(1,1-dioxidoisothiazoli132din-2-yl)-2-ethylpyridin-3-yl)oxy)-1-(1-(4-methylthiazol-5-yl)-3,4,6,7,8,9-hexahydroimidazo[1,2-a:5,4-c′]dipyridin-2(1H)-yl)ethanone]: 15 nM; `CCc1nc(NS(C)(=O)=O)ccc1OCC(=O)N1CCc2nc3n(c2C1c1sccc1F)CCCC3` (stereo not drawn) [Example 1.14.1, N-(6-ethyl-5-(2-(1-(3-fluorothiophen-2-yl)-3,4,6,7,8,9-hexahydroimidazo[1,2-a:5,4-c′]dipyridin-2(1H)-yl)-2-oxoethoxy)pyridin-2-yl)methanesulfonamide]: 16 nM. `CCc1nc(C(=O)NC2CC2)ccc1OCC(=O)N1CCc2nc3n(c2C1c1sccc1F)CCCC3` (stereo not drawn) [Example 1.14.2, N-cyclopropyl-6-ethyl-5-(2-(1-(3-fluorothiophen-2-yl)-3,4,6,7,8,9-hexahydroimidazo[1,2-a:5,4-c′]dipyridin-2(1H)-yl)-2-oxoethoxy)picolinamide]: half-maximal inhibition (IC50) was put at 12 nM. `CCc1nc(NS(C)(=O)=O)ccc1OCC(=O)N1CCc2nc3n(c2C1c1cnc(C)s1)CCCC3` (stereo not drawn) [Example 1.15.1, N-(6-ethyl-5-(2-(1-(2-methylthiazol-5-yl)-3,4,6,7,8,9-hexahydroimidazo[1,2-a:5,4-c′]dipyridin-2(1H)-yl)-2-oxoethoxy)pyridin-2-yl)methanesulfonamide] displayed a half-inhibitory concentration (IC50) of 36 nM.

`CCc1nc(N2CCCS2(=O)=O)ccc1OCC(=O)N1CCc2nc3n(c2C1c1cnc(C)s1)CCCC3` (stereo not drawn) [Example 1.15.2, 2-((6-(1,1-dioxidoisothiazolidin-2-yl)-2-ethylpyridin-3-yl)oxy)-1-(1-(2-methylthiazol-5-yl)-3,4,6,7,8,9-hexahydroimidazo[1,2-a:5,4-c′]dipyridin-2(1H)-yl)ethanone] registered a concentration for half-maximal inhibition (IC50) of 27 nM. `CCc1nc(NS(C)(=O)=O)ccc1OCC(=O)N1CCc2nc3n(c2C1c1cnc(-c2ccccc2)s1)CCCC3` (stereo not drawn) [Example 1.16.1, N-(6-ethyl-5-(2-oxo-2-(1-(2-phenylthiazol-5-yl)-3,4,6,7,8,9-hexahydroimidazo[1,2-a:5,4-c′]dipyridin-2(1H)-yl)ethoxy)pyridin-2-yl)methanesulfonamide] gave an IC50 of 225 nM. Next, `CCc1nc(NS(C)(=O)=O)ccc1OCC(=O)N1CCc2nc3n(c2C1c1nc(-c2ccccc2)no1)CCCC3` (stereo not drawn) [Example 1.17.1, N-(6-ethyl-5-(2-oxo-2-(1-(3-phenyl-1,2,4-oxadiazol-5-yl)-3,4,6,7,8,9-hexahydroimidazo[1,2-a:5,4-c′]dipyridin-2(1H)-yl)ethoxy)pyridin-2-yl)methanesulfonamide]: 79 nM.

`Cc1nc(C(F)(F)F)sc1C1c2c(nc3n2CCCC3)CCN1C(=O)COc1ccc(NS(C)(=O)=O)nc1Cl` (stereo not drawn) [Example 1.18.1, N-(6-chloro-5-(2-(1-(4-methyl-2-(trifluoromethyl)thiazol-5-yl)-3,4,6,7,8,9-hexahydroimidazo[1,2-a:5,4-c′]dipyridin-2(1H)-yl)-2-oxoethoxy)pyridin-2-yl)methanesulfonamide] showed an IC50 of 126 nM. Next, `Cc1cc(F)cnc1C1c2c(nc3n2CCCC3)CCN1C(=O)COc1ccc(NS(C)(=O)=O)nc1Cl` (stereo not drawn) [Example 1.19.1, N-(6-chloro-5-(2-(1-(5-fluoro-3-methylpyridin-2-yl)-3,4,6,7,8,9-hexahydroimidazo[1,2-a:5,4-c′]dipyridin-2(1H)-yl)-2-oxoethoxy)pyridin-2-yl)methanesulfonamide]: 113 nM. The compound `O=C(NC1CC1)c1ccc(OCC(=O)N2CCc3nc4n(c3C2c2ccc(OC(F)(F)F)cc2F)CCCC4)c(Cl)n1` (stereo not drawn) [Example 1.20.1, 6-chloro-N-cyclopropyl-5-(2-(1-(2-fluoro-4-(trifluoromethoxy)phenyl)-3,4,6,7,8,9-hexahydroimidazo[1,2-a:5,4-c′]dipyridin-2(1H)-yl)-2-oxoethoxy)picolinamide] came in with an IC50 of 26 nM. As for `CS(=O)(=O)Nc1ccc(OCC(=O)N2CCc3nc4n(c3C2c2ccc(OC(F)(F)F)cc2F)CCCC4)c(Cl)n1` (stereo not drawn) [Example 1.20.2, N-(6-chloro-5-(2-(1-(2-fluoro-4-(trifluoromethoxy)phenyl)-3,4,6,7,8,9-hexahydroimidazo[1,2-a:5,4-c′]dipyridin-2(1H)-yl)-2-oxoethoxy)pyridin-2-yl)methanesulfonamide], half-maximal inhibition (IC50) required 37 nM. The compound `COc1ccc(C2c3c(nc4n3CCCC4)CCN2C(=O)COc2ccc(C(=O)NC3CC3)nc2Cl)c(F)c1` (stereo not drawn) [Example 1.21.1, 6-chloro-N-cyclopropyl-5-(2-(1-(2-fluoro-4-methoxyphenyl)-3,4,6,7,8,9-hexahydroimidazo[1,2-a:5,4-c′]dipyridin-2(1H)-yl)-2-oxoethoxy)picolinamide] showed an IC50 of 18 nM.

`COc1ccc(C2c3c(nc4n3CCCC4)CCN2C(=O)COc2ccc(NS(C)(=O)=O)nc2Cl)c(F)c1` (stereo not drawn) [Example 1.21.2, N-(6-chloro-5-(2-(1-(2-fluoro-4-methoxyphenyl)-3,4,6,7,8,9-hexahydroimidazo[1,2-a:5,4-c′]dipyridin-2(1H)-yl)-2-oxoethoxy)pyridin-2-yl)methanesulfonamide] came in with an IC50 of 78 nM. Next, `CS(=O)(=O)Nc1ccc(OCC(=O)N2CCc3nc4n(c3C2c2ccc(C#N)cc2F)CCCC4)c(Cl)n1` (stereo not drawn) [Example 1.22.1, N-(6-chloro-5-(2-(1-(4-cyano-2-fluorophenyl)-3,4,6,7,8,9-hexahydroimidazo[1,2-a:5,4-c′]dipyridin-2(1H)-yl)-2-oxoethoxy)pyridin-2-yl)methanesulfonamide]: 48 nM.

Regarding `N#Cc1ccc(C2c3c(nc4n3CCCC4)CCN2C(=O)COc2ccc(C(=O)NC3CC3)nc2Cl)c(F)c1` (stereo not drawn) [Example 1.22.2, 6-chloro-5-(2-(1-(4-cyano-2-fluorophenyl)-3,4,6,7,8,9-hexahydroimidazo[1,2-a:5,4-c′]dipyridin-2(1H)-yl)-2-oxoethoxy)-N-cyclopropylpicolinamide], the IC50 was 28 nM. On to `COC(=O)c1ccc(C2c3c(nc4n3CCCC4)CCN2C(=O)COc2ccc(NS(C)(=O)=O)nc2Cl)c(F)c1` (stereo not drawn) [Example 1.23.1, methyl-4-(2-(2-((2-chloro-6-(methylsulfonamido)pyridin-3-yl)oxy)acetyl)-1,2,3,4,6,7,8,9-octahydroimidazo[1,2-a:5,4-c′]dipyridin-1-yl)-3-fluorobenzoate], for which 21 nM corresponded to half-maximal inhibition (IC50).
